Assay results reported in patent US9757375B2, “Compounds that inhibit human DNA ligases and methods of treating cancer” (University of Maryland, Baltimore, priority 2007, dated 2017).

What was measured:
[1] = tested on: MCF10A, MCF7, HCT116, and HeLa cells; test: Cell viability after 6 days on cell panel (FIG. 8); assay type: cell-based, human; details: FIG. 8, 6 days viability; MCF7 colonies, cell cycle
Description: FIG. 8. […] A, MCF10A (▪), MCF7 (♦), HCT116 (▴), and HeLa (upsidedown triangle) cells were plated in the absence or presence of L82 (left), L67 (middle), and L189 (right). After 6 days, cell viability was measured and is expressed as a percentage of the value obtained with untreated cells. B, MCF7 cells were plated out in the absence or presence of L82 (top) and L67 (bottom) at the indicated concentrations. After 2 weeks, colonies were stained with crystal violet. C, after serum starvation for 4 days, MCF 7 cells were returned to serum-containing media either without (▪) or with 50 μmol/L of L82 (●). The cell cycle distribution at various time intervals was determined by fluorescence-activated cell sorting. D, asynchronous populations of MCF cells were either untreated (top) or treated with L82 at 10 μmol/L (middle) and 50 μmol/L (bottom). After 3 days, tubulin and DNA were visualized by fluorescence microscopy (bars, […]).

[2] = tested on: Human DNA ligases I, III and IV and T4 DNA ligase; test: Step 2 of the ligation reaction: DNA-AMP (DNA-adenylate) formation on non-ligatable nick; assay type: biochemical
Description: To analyze step 2 of the ligation reaction, labeled ligase-AMP intermediates (10 pmol (22)) were incubated overnight at 25° C. with an unlabeled nonligatable version (dideoxy residue at the 3′-terminus of the nick) of the DNA oligonucleotide substrate (10 pmol), either in the presence or absence of the ligase inhibitors (100 μmol/L).
Since the final two steps of the ligation reaction involve interactions with DNA, we examined the effects of the ligase inhibitors on the second (FIG. 3B) (The labeled ligase-adenylate form of human DNA ligases I, III and IV and T4 DNA ligase were incubated with a linear DNA substrate containing a single non-ligatable nick in the absence or presence of compounds 67, 82 and 189 (100 μM). After separation by denaturing gel electrophoresis, the labeled DNA-AMP complex was detected by phosphorimaging (26)) and third steps (FIG. 3C) of the ligation reaction using established assays (25,26) (Non-adenylated human DNA ligases I, III and IV and T4 DNA ligase were incubated with labeled DNA-AMP in the absence or presence of compounds 67, 82 and 189 (100 μM). After separation by denaturing gel electrophoresis, labeled ligated DNA was detected by phosphorimaging (25)).

| SMILES | effect on cell viability / growth, in words [1] | inhibition of step 2 of the ligation reaction ([2]; 100 μM, FIG. 3B) | Mechanism: ligation step inhibited (2nd step) ([2]; Table 5A) |
| --- | --- | --- | --- |
| O=c1[nH]ncc(N/N=C\c2ccc(O)c([N+](=O)[O-])c2)c1Cl [Compound 82] | cytostatic effect | – | – |
| Nc1nc(S)nc(O)c1/N=C/c1ccccc1 [Compound 189] | – | inhibits step 2 | 2nd |
